Measurements taken from US6686449B2, “Mutant presenilin 1 polypeptides” (Pharmacia & Upjohn Company, priority 2000, dated 2004).
Where a SMILES comes first, the peptide text is derived from it. The star is where a group is joined. Cbz = O=C(OCc1ccccc1)*

Assays:
Format in all cases: cell-based, human
[1] = tested on: Aβ1-40 production in H125.3-16 (APP-Sw-KK) and APA2 (APP-Sw-KK and PS1-wt) cells; test: Inhibition assay, stable cell lines: Elisa of Aβ1-40 in conditioned media, PS1wt cell lines; settings: PS1wt cell lines (H125.3-16, APA2)
Source text: (§1) The purpose of the experiment was to assess the effect of compounds known or postulated to have an effect on processing at the proposed gamma cleavage site
(§2) The compounds used were L685,458 (Bachem Cat # H-5106) described by Li et al (15), one we have designated 512088, a fenchylamine sulfonamide inhibitor described by Rishton et al. (16). Z-Leu-Leu-Leu-H, also known as MG132 (Peptide Institute Cat # 3175-v) described by Tajima et al (17), and DMSO (Aldrich Cat # 27,685-5) as a vehicle control. All drugs were resuspended in DMSO at a concentration of 10 mM. Serial dilutions of the drugs were made in cell culture media [DMEM (Gibco cat # 11965-092) supplemented with 10% fetal bovine serum, 1 mM sodium pyruvate, 100 units/ml penicillin G, 100 ug/ml streptomycin sulfate, and 400 ug/ml Geneticin]. Stable cell lines used for drug testing were H125.3-16 (expressing APP-Sw-KK), APA2 (co-expressing APP-Sw-KK and PS1-wt), APB10 (co-expressing APP-Sw-KK and PS1-DTG385), and APD3 (co-expressing APP-Sw-KK and PS1-M146V). […] Conditioned media was harvested 24 hours post-treatment and analyzed in an Elisa assay for Aβ40 or Aβ42 levels (Described below). […]
(§3) Primary Antibody 6E10 was purchased from Senetek PLC (St. Louis, Mo.). […] Plates were read on a Molecular Devices Thermomax Plate Reader with integrated software that calculated the data and analyzed confidence values for the samples. […]

[2] = tested on: Aβ1-42 production in APB10 cells (APP-Sw-KK and PS1-DTG385); test: Inhibition assay, stable cell lines: Elisa of Aβ1-42 in conditioned media, PS1-DTG385 cell line; settings: for dose response profile, Aβ1-42 production: PS1-DTG385 cell line
Source text: as §1
(§4) The compounds used were L685,458 (Bachem Cat # H-5106) described by Li et al (15), one we have designated 512088, a fenchylamine sulfonamide inhibitor described by Rishton et al. (16). Z-Leu-Leu-Leu-H, also known as MG132 (Peptide Institute Cat # 3175-v) described by Tajima et al (17), and DMSO (Aldrich Cat # 27,685-5) as a vehicle control. All drugs were resuspended in DMSO at a concentration of 10 mM. Serial dilutions of the drugs were made in cell culture media [DMEM (Gibco cat # 11965-092) supplemented with 10% fetal bovine serum, 1 mM sodium pyruvate, 100 units/ml penicillin G, 100 ug/ml streptomycin sulfate, and 400 ug/ml Geneticin]. Stable cell lines used for drug testing were H125.3-16 (expressing APP-Sw-KK), APA2 (co-expressing APP-Sw-KK and PS1-wt), APB10 (co-expressing APP-Sw-KK and PS1-DTG385), and APD3 (co-expressing APP-Sw-KK and PS1-M146V). APP-Sw-KK (An APP construct with a di-lysine motif at the C terminus) has been described in U.S. patent application Ser. No. 09/416901 filed Oct. 13, 1999 and also in WO 00/17369 “Alzheimer's Disease Secretase” published Mar. 30, 2000. Cells were plated at a concentration of 2.5×10^4 or 5.0×10^4 cells per well of a 96 well dish on day 1. Cells were treated with various concentrations of drugs on day 3. Conditioned media was harvested 24 hours post-treatment and analyzed in an Elisa assay for Aβ40 or Aβ42 levels (Described below). An MTS assay (Promega) was performed on the cells 24 hours post-treatment to assess toxicity levels of the drugs.
Primary Antibody 6E10 was purchased from Senetek PLC (St. Louis, Mo.). Secondary Antibodies 162, 163, 164 and 165 were purchased from New York Institute for Basic Research (Staten Island, N.Y.). β Bachem (Torrence, Calif.). β-Amyloid 1-40 is cat #ZN571) and 1-42 is cat #ZN327) Neutravidin was purchased from Pierce (Rockford, Ill.). The tetramethylbenzidine color development system was purchased from Kirkigaard & Perry Laboratories Inc. (Gaithersburg, Md.). Plates were read on a Molecular Devices Thermomax Plate Reader with integrated software that calculated the data and analyzed confidence values for the samples.
The coating buffer is 0.1M NaHCO3, pH8.2. Wash buffer is Dulbecco's PBS+0.05% Tween 20 (PBST). Blocking buffer is PBST+1% BSA (make up fresh the day of assay). The substrate is TMB Kirkegaard & Perry Labs. (cat.no.50-76-03). Plates are Costar 96 well half area EIA plates (cat.no.3690). Supplemental BSA is supplied as PBST+10% BSA made fresh on the day of assay.
1. Coat half area 96 well plates (Costar 3690) overnight @ 4° C. with capture antibody 6E10 (50 μl/well) made at […] in coating buffer, pH8.2.
2. Wash plates on an automatic plate washer 1× with wash buffer (175 μl/well).
3. Add 75 ul of blocking buffer to each well. Incubate 1 hr. @room temperature, then wash 3×.
4. Make standard curves from fresh aliquots for each amyloid in blocking buffer as follows:
b. Aβ 1-42 (10 μM. stock in DMSO): Make an initial dilution of […] then follow the instructions for Abeta 1-40 starting at the 1:100 dilution.
5. Add 50 μl of each std. (use duplicates) or sample dilution into the appropriate wells.
Incubate the standards and unknown samples @ room temperature for 3 to 4 hrs. If the samples being assayed contain no protein, 5 μl. of supplemental 10% BSA should be added to the sample wells before adding 50 μl. of sample.
6. […]

[3] = tested on: Aβ1-42 production in H125.3-16 (APP-Sw-KK) and APA2 (APP-Sw-KK and PS1-wt) cells; test: Inhibition assay, stable cell lines: Elisa of Aβ1-42 in conditioned media, PS1wt cell lines; settings: for dose response profile, Aβ1-42 production: PS1wt cell lines (H125.3-16, APA2)
Source text: as §1, §4, §3

[4] = tested on: Aβ1-40 production in APB10 cells (APP-Sw-KK and PS1-DTG385); test: Inhibition assay, stable cell lines: Elisa of Aβ1-40 in conditioned media, PS1-DTG385 cell line
Source text: as §1, §2, §3

[5] = tested on: gamma-secretase (Aβ1-40 and Aβ1-42 production in three stable cell lines); test: Inhibition assay, stable cell lines: overall potency on Aβ1-40 and Aβ1-42 production; settings: greater than 512088
Source text: as §1
The compounds used were L685,458 (Bachem Cat # H-5106) described by Li et al (15), one we have designated 512088, a fenchylamine sulfonamide inhibitor described by Rishton et al. (16). Z-Leu-Leu-Leu-H, also known as MG132 (Peptide Institute Cat # 3175-v) described by Tajima et al (17), and DMSO (Aldrich Cat # 27,685-5) as a vehicle control. All drugs were resuspended in DMSO at a concentration of 10 mM. Serial dilutions of the drugs were made in cell culture media [DMEM (Gibco cat # 11965-092) supplemented with 10% fetal bovine serum, 1 mM sodium pyruvate, 100 units/ml penicillin G, 100 ug/ml streptomycin sulfate, and 400 ug/ml Geneticin]. Stable cell lines used for drug testing were H125.3-16 (expressing APP-Sw-KK), APA2 (co-expressing APP-Sw-KK and PS1-wt), APB10 (co-expressing APP-Sw-KK and PS1-DTG385), and APD3 (co-expressing APP-Sw-KK and PS1-M146V). APP-Sw-KK (An APP construct with a di-lysine motif at the C terminus) has been described in U.S. patent application Ser. No. 09/416901 filed Oct. 13, 1999 and also in WO 00/17369 “Alzheimer's Disease Secretase” published Mar. 30, 2000. […] Conditioned media was harvested 24 hours post-treatment and analyzed in an Elisa assay for Aβ40 or Aβ42 levels (Described below). […]

Row | SMILES | dose response profile, inhibition of Aβ1-40 [1] | dose response profile, Aβ1-42 production [2] | potentiation of production of Aβ1-42 relative to Aβ1-40 ([2]; PS1DTG385 cells) | peak in the dose response (Aβ1-42) ([2]; PS1DTG385 cells, FIG. 8) | dose response profile, Aβ1-42 production [3] | peak in the dose response (Aβ1-42) ([3]; PS1wt cell lines, FIG. 8) | dose response profile, inhibition of Aβ1-40 [4] | potency relative to 512088 [5] | shift of the dose response compared with the PS1wt cell lines ([2]; PS1DTG385 cells)
1 | CC(C)C[C@@H](C=O)NC(=O)[C@H](CC(C)C)NC(=O)[C@H](CC(C)C)NC(=O)OCc1ccccc1 [MG132, Z-Leu-Leu-Leu-H] (Cbz-Leu-Leu-Leu-aldehyde) | not strongly biphasic in any of the cell lines except the parental PS1wt HEK125.3-16 | not strongly biphasic | does not happen | 0.3 µM | strongly biphasic | 10 µM | not strongly biphasic |  | 
2 | CC(C)C[C@H](NC(=O)[C@H](Cc1ccccc1)C[C@@H](O)[C@H](Cc1ccccc1)NC(=O)OC(C)(C)C)C(=O)N[C@@H](Cc1ccccc1)C(N)=O [L685,458] | biphasic dose response | clearly biphasic |  |  | biphasic |  | linear decrease | approximately 10 fold | slightly lower potency
